Experimental data published in patent publication US20040127439A1, “Introduction of the wld gene for prevention of axonal degeneration in neurological diseases” (priority 2004, published 2004).
Where two headings read alike, the source gives them in different places.

Tests used:
DRG neurites [1] = conditions: for Area (DRG neuritic halo) / Length (longest neurite): Vin 0.01 μM, EGTA 2 mM
Description: On the day of DRG culture, the dishes are washed twice with PBS buffer (pH 7.4), filled with 550 μl medium and pre-incubated at 37 C for at least 2 hours. Fifteen-day old embryos (E15) are removed from pregnant Sprague-Dawley rats (Charles River), and spinal cords with cervical and thoracic DRGs attached are dissected into Leibovitz L-15 medium (GIBCO). Ganglia are separated from the spinal cord, stripped of their connective tissue sheaths and roots, and are then pooled and washed twice with PBS buffer (pH 7.4). DRGs are plated (4 per dish) in culture media and incubated at 37° C. in 5% carbon dioxide for 4 hours to allow DRGs to attach to the substrate. Medium is then added to bring the total volume to 1 ml. […] Calcium-free medium is prepared in the same manner, replacing MEM with S-MEM (GIBCO).
At the end of the treatment period (see below) DRGs are fixed for 30 minutes with 4% paraformaldehyde. Cultures are then rinsed with 0.1M TBS buffer, and treated sequentially with 3% H2O2, TBS-Triton, and 4% normal goat serum (NGS), each for 30 minutes at room temperature. DRGs are incubated at 4 C overnight in monoclonal antibody to MAP5 (1:500, Sigma). After washing in TBS-Triton, DRGs are incubated for 60 minutes in biotinylated secondary antibody, rinsed with TBS and reacted with avidin-biotin complex solution (ABC; Vector Labs) for one hour. Color is generated by incubation for 10 minutes in diaminobenzidine (DAB) solution, enhanced by addition of 0.025% cobalt chloride and 0.02% nickel ammonium sulfate. Stained tissue is rinsed, air dried and cover-slipped for microscopy with Crystal/Mount (Biomeda).
This method of allowing neuritic extension to proceed before addition of a neurotoxin tests the effect of the toxin on established neurites as opposed to the effect on primary neuritic outgrowth.
After day 5 of culture, the media is changed to that containing the experimental treatment. This date is defined as treatment day 0. Cultures are monitored and imaged daily using video microscopy. […] AK 295 (Z-leu-Abu-(CH2)3-4-morpholinyl, gift of Dr. James Powers, Georgia Institute of Technology), is dissolved in 100% DMSO and is then diluted to its final concentration with culture medium. The final concentration of DMSO is 0.05%. Phenylmethylsulfonyl fluoride (PMSF) is manufactured by and commercially available from Sigma.
After 6 days of treatment (11 days in culture) immunostained DRGs are quantitated for degree of axonal degeneration. Images of the DRGs and neurites are captured onto disk using a computerized video imaging system, and are analyzed using NIH Image version 1.61. DRG areas are calculated by tracing the outside circumference of the remaining culture halo. The length of the longest neurite of each DRG is measured from the center of the DRG to the distal end of the neurite, so that cultures without remaining neurites still have positive values. These quantitative data are subjected to ANOVA, with post-test correction for multiple comparisons.

axotomized neurites = experiment: Wallerian degeneration of axotomized DRG neurites in culture; type: cell-based, rat; conditions: added at the time of axotomy; EGTA 2 mM or AK295 50 μM; 72 hours after axotomy
Description: Five-day old cultures with extended neurites are used. Neurites are cut by excising and removing the DRG with a scalpel blade. Care should be taken to remove substantially all neurons within the DRG. At least 1 ganglion/dish was left unaxotomized to serve as a control for that group of ganglia. For experiments involving therapeutic interventions, the media is changed just prior to axotomy to media containing either EGTA (2 mM) or AK295 (50 μM). Cultures are observed daily for 72 hours after axotomy, at which time they are fixed and immunostained.
Stained cultures are scored blindly for degree of axonal degeneration. […] Any fibers with interruptions along their length are scored as degenerated. The number of surviving fibers in each DRG are counted under 200× magnification, and the DRG is given a survival score of 0-3: 0 =no fibers remaining, 1=1-4 fibers remaining, 2=5-9 fibers remaining, 3=10 or more fibers remaining.

DRG neurites [2] = experiment: Effect of treatment modalities on DRG area and neuritic length in control cultures (no vincristine); type: cell-based, rat; conditions: for Area / Length: added to 5-day old cultures, after 6 days of treatment, no vincristine; for effects on neurite growth or survival in control cultures (in words): addition to control cultures
Source text: This date is defined as treatment day 0. Cultures are monitored and imaged daily using video microscopy. […] The final concentration of DMSO is 0.05%.

[3] = Day 3 of treatment, AK295 50 μM
[4] = Day 4 of treatment, AK295 50 μM
[5] = Day 6 of treatment, AK295 50 μM, PMSF 50 μM

CCC(NC(=O)[C@H](CC(C)C)NC(=O)OCc1ccccc1)C(=O)C(=O)NCCCN1CCOCC1 (stereo partly shown) [AK295, Z-leu-Abu-(CH2)3-4-morpholinyl]
prevention of vincristine-induced axonal degeneration (in words) (DRG neurites [1]; AK295 1 μM (not shown)): ineffective
prevention of vincristine-induced axonal degeneration (in words) (DRG neurites [1]; AK295 10 μM (not shown)): effective in preventing axonal degeneration
prevention of vincristine-induced axonal degeneration (in words) (DRG neurites [1]; AK295 50 μM): effective in preventing axonal degeneration
Area (DRG neuritic halo) (DRG neurites [1]; [3]): 16.61 ± 1.18 (18) mm^2
Length (longest neurite) (DRG neurites [1]; [3]): 2.65 ± 0.11 mm
Area (DRG neuritic halo) (DRG neurites [1]; [4]): 14.77 ± 2.19 (14) mm^2
Length (longest neurite) (DRG neurites [1]; [4]): 2.45 ± 0.25 mm
Area (DRG neuritic halo) (DRG neurites [1]; [5]): 10.34 ± 2.14 (12) mm^2
Length (longest neurite) (DRG neurites [1]; [5]): 2.05 ± 0.25 mm
protection against Wallerian degeneration (in words) (axotomized neurites): as protective as EGTA
Area (DRG neurites [2]): 49.18 ± 2.69 mm^2
Length (DRG neurites [2]): 4.80 ± 0.16 mm
effects on neurite growth or survival in control cultures (in words) (DRG neurites [2]): no effects on neurite growth or survival

O=C(O)CN(CCOCCOCCN(CC(=O)O)CC(=O)O)CC(=O)O [EGTA]
Area (DRG neuritic halo) (DRG neurites [1]; [3]): 15.05 ± 1.78 (12) mm^2
Length (longest neurite) (DRG neurites [1]; [3]): 2.62 ± 0.17 mm
Area (DRG neuritic halo) (DRG neurites [1]; [4]): 12.97 ± 0.94 mm^2
Length (longest neurite) (DRG neurites [1]; [4]): 2.44 ± 0.13 mm
Area (DRG neuritic halo) (DRG neurites [1]; [5]): 13.36 ± 1.04 (14) mm^2
Length (longest neurite) (DRG neurites [1]; [5]): 2.43 ± 0.07 mm
protection against vincristine-induced axonal degeneration (in words) (DRG neurites [1]; EGTA 2 mM in standard media): as effective as calcium-free media
protection against vincristine-induced axonal degeneration (in words) (DRG neurites [1]; EGTA ≦1 mM in standard media): ineffective
protection against Wallerian degeneration (in words) (axotomized neurites): significant protection
Area (DRG neurites [2]): 44.40 ± 2.74 mm^2
Length (DRG neurites [2]): 4.74 ± 0.18 mm
effects on neurite growth or survival in control cultures (in words) (DRG neurites [2]): no effects on neurite growth or survival

O=S(=O)(F)Cc1ccccc1 [PMSF, Phenylmethylsulfonyl fluoride]
Area (DRG neuritic halo) (DRG neurites [1]; [5]): 0.73 ± 0.16 (43) mm^2
Length (longest neurite) (DRG neurites [1]; [5]): 0.55 ± 0.06 mm
protection against vincristine-induced axonal degeneration (in words) (DRG neurites [1]; PMSF 50 μM, day 6): no protective effects
